Experimental data reported in PMC8244912, “An oxytocin/vasopressin-related neuropeptide modulates social foraging behavior in the clonal raider ant” (PLoS Biology, 2021).
Entries after “also recorded” stand apart in the source; their conditions may differ.

Tests used:
[1] = system: HEK293T cells transfected with an empty vector; test: Calcium flux, HEK293T cells transfected with empty vector; assay type: cell-based, human; conditions: ATP 10 μM (cell health control)
Experimental: (§1) Human embryonic kidney 293T (HEK293T) cells were cultured in DMEM supplemented with 10% FBS at 37°C in a tissue culture incubator with a humidified atmosphere containing 5% CO2. Cells were plated in 10-cm dishes, and, when they reached 60% to 70% confluency, they were transfected with a pcDNA3.3 vector containing approximately 1 ng of inotocin receptor cDNA or an empty vector as a control using Lipofectamine 2000. Cells were transfected directly into poly-D-lysine–coated 384-well plates and incubated for 48 hours at 37°C. Subsequently, cells were incubated with FLIPR Calcium 4 Assay kit dye for 1 hour in the incubator. The fluorescence (excitation, 488 nm; emission, 530 nm) of the wells was recorded using a Flex Station II 384 (Molecular Devices, San Jose, California, USA), and a dose curve of inotocin (0 to 3 μM) was applied to the wells, in sextuplicate (see below for inotocin peptide synthesis). We calculated the EC50 values using Prism (GraphPad Software version 8) nonlinear regression, 4-parameter logistic curve fit. Dose curves were repeated at least 3 times on independently prepared samples and different days. Results were consistent across replicates, and example dose curves are shown in Fig 1C and S4A Fig. Control experiments are shown in S2–S5 Figs.

[2] = target: O. biroi inotocin receptor (ObiroiItr_A) (Ooceraea biroi, UniProt A0A8F5LPT9); test: Calcium flux, HEK293T cells transfected with full-length inotocin receptor (FLIPR Calcium 4); assay type: cell-based; conditions: for calcium response: HEK293T cells expressing full-length itcR; for LogEC50 / HillSlope: variable slope
From the text: RNA was isolated in TRIzol using the RNeasy (Qiagen, Germantown, Maryland, USA) purification kit with DNAse I (Qiagen) on-column digestion as in [52] from a sample that contained adult ants, larvae, and pupae and reverse-transcribed into cDNA. Full-length cDNAs for the O. biroi inotocin receptor were PCR amplified with primers 5′-[…]-3′ and 5′-[…]-3′, using the Easy-A high fidelity polymerase (Agilent, Santa Clara, California, USA) to generate PCR products with 5′-Kozak consensus sequences and 3′-A overhangs. The inotocin receptor cDNAs were cloned into the pcDNA3.3 TOPO TA cloning vector (Invitrogen, Waltham, Massachusetts, USA) following manufacturer’s guidelines.
The full-length inotocin receptor cDNA sequence that was cloned and used for calcium assays is ObiroiItr_A (GenBank MW660838; for protein sequence, see S1 Fig). We also tested splice variant ObiroiItr_H (GenBank MW660845; for protein sequence, see S1 Fig), which lacks TM4-7, for calcium activity.
as §1, with “[…],” for “and a dose curve of inotocin (0 to 3 μM) was applied to the wells,”, “days.” for “days. Results were consistent across replicates, and example dose curves are shown in Fig 1C and S4A Fig. Control experiments are shown in S2–S5 Figs.”

[3] = system: untransfected HEK293 cell membranes; conditions: ref Jasper, Harrell et al. 1995; cited from earlier work
From the text: (§2) We have edited this last sentence of the abstract to: “Inotocin signaling thereby likely contributes to behavioral individuality an ...

HEK293 cells = conditions: oxytocin: ref Burger, Fahrenholz et al. 1999, Ma, Hashii et al. 2013, vasopressin: ref Burger; cited from earlier work
From the text: as §2

itcR from Lasius ants = conditions: CHO cells; ref Koto, Motoyama et al. 2019; cited from earlier work
From the text: as §2

beetle inotocin receptor = conditions: CHO cells; ref Stafflinger, Hansen et al. 2008; cited from earlier work
From the text: as §2

O. biroi inotocin receptor (ObiroiItr_A), sequence (A0A8F5LPT9 entry or part of it): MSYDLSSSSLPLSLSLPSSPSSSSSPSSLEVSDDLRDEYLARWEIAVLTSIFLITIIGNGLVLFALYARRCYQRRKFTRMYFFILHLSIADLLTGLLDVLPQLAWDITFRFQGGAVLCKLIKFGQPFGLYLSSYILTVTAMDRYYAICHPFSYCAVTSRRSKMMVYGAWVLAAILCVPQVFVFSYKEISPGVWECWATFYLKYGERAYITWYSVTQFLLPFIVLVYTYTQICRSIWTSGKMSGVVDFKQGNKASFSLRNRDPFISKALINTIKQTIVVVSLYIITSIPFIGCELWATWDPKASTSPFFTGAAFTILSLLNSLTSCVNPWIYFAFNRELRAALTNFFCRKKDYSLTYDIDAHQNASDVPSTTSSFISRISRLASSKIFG

| Molecule | calcium response [2] | binding of radiolabeled peptide [3] | calcium responses of untransfected and mock transfected HEK293 cells (HEK293 cells) | EC50 [2] [µM] | also measured |
| --- | --- | --- | --- | --- | --- |
| Nc1ncnc2c1ncn2[C@@H]1O[C@H](COP(=O)(O)OP(=O)(O)OP(=O)(O)O)[C@@H](O)[C@H]1O [ATP, reference compound] | – | – | – | – | calcium response [1]: are healthy and show calcium responses |
| NRPCGLTCI [scrambled control peptide, scrambled version of inotocin (…) as negative control with identical amino acid composition] | No Ca^2+ influx is detected | – | – | – | – |
| N=C(N)NCCC[C@H](NC(=O)[C@@H]1CCCN1C(=O)[C@@H]1CSSC[C@H](N)C(=O)N[C@@H](Cc2ccc(O)cc2)C(=O)N[C@@H](Cc2ccccc2)C(=O)N[C@@H](CCC(N)=O)C(=O)N[C@@H](CC(N)=O)C(=O)N1)C(=O)NCC(N)=O [AVP] | – | do not bind | do not show calcium | 12.6 | calcium response ([2]; listed as vasopressin): also elicit calcium responses; also recorded: also produced calcium transients; LogEC50 ([2]; S4C Fig, AVP, SE 0.09024, 95% CI -5.083 to -4.715): -4.899; HillSlope ([2]; S4C Fig, AVP, SE 0.1917, 95% CI 0.6094 to 1.391): 1 |
| CC[C@H](C)[C@@H]1NC(=O)[C@H](Cc2ccc(O)cc2)NC(=O)[C@@H](N)CSSC[C@@H](C(=O)N2CCC[C@H]2C(=O)N[C@@H](CC(C)C)C(=O)NCC(N)=O)NC(=O)[C@H](CC(N)=O)NC(=O)[C@H](CCC(N)=O)NC1=O [oxytocin] | also elicit calcium responses; also recorded: also produced calcium transients | do not bind | do not show calcium | 0.835 | receptor response (itcR from Lasius ants): respond; receptor response (beetle inotocin receptor): responds; HillSlope ([2]; S4B Fig, oxytocin, SE 0.05165, 95% CI 0.5075 to 0.7181): 0.6128; LogEC50 ([2]; S4B Fig, oxytocin, X data log of Molar_Oxytocin, SE 0.0661, 95% CI -6.213 to -5.944): -6.078 |
